Values of other authors in US6555583B2, “Therapies for treating pulmonary diseases” (SmithKline Beecham Corporation, priority 1998, dated 2003).

Conditions: rolipram developed as an antidepressant

COc1ccc(C2CNC(=O)C2)cc1OC1CCCC1 (stereo not shown) [rolipram]
side effects in clinical studies: psychotropic activity and produces gastrointestinal effects
